Laboratory results as given in ChEMBL document CHEMBL4376845, “Design, Synthesis, and Biological Evaluation of MEK PROTACs” (J Med Chem, 2020).
The source made the active and inactive calls. The calls are words filed in the database; no cut-off is given here.

Assays:
[1] = system: A-375; experiment: Antiproliferative activity against human A375 cells assessed as reduction in cell viability; type: functional, cell-based
[2] = molecular target: T1, von Hippel-Lindau disease tumor suppressor/Dual specificity mitogen-activated protein kinase kinase 2/Dual specificity mitogen-activated protein kinase kinase 1 (Homo sapiens) (UniProt P36507+Q02750+P40337); experiment: Protac activity at VHL/MEK in human A375 cells assessed as reduction in IL6 secretion at 10 uM incubated for 12 hrs followed by poly(I:C) treatment and measured after 4 hrs by AlphaLISA assay; type: cell-based
[3] = system: A-375; experiment: Antiproliferative activity against human A375 cells assessed as growth inhibition at 10 uM measured up to 72 hrs by IncuCyte zoom live cell analysis; type: functional, cell-based
[4] = molecular target: T1, von Hippel-Lindau disease tumor suppressor/Dual specificity mitogen-activated protein kinase kinase 2/Dual specificity mitogen-activated protein kinase kinase 1 (Homo sapiens); experiment: Protac activity at VHL/MEK in human A375 cells assessed as reduction in ERK1/2 phosphorylation at 10 uM incubated for 2 hrs in presence of poly(I:C) stimulation by Surefire assay; type: cell-based
[5] = molecular target: T1, von Hippel-Lindau disease tumor suppressor/Dual specificity mitogen-activated protein kinase kinase 2/Dual specificity mitogen-activated protein kinase kinase 1 (Homo sapiens); experiment: Protac activity at VHL/MEK in human A375 cells assessed as maximal MEK1 degradation at 10 uM incubated for 8 hrs in presence of ploy(I:C) stimulation by Surefire assay; type: cell-based
[6] = molecular target: T1, von Hippel-Lindau disease tumor suppressor/Dual specificity mitogen-activated protein kinase kinase 2/Dual specificity mitogen-activated protein kinase kinase 1 (Homo sapiens); experiment: Protac activity at VHL/MEK in human A375 cells assessed as reduction in ERK1/2 phosphorylation at 10 uM incubated for >=8 hrs in presence of poly(I:C) stimulation by Surefire assay relative to control; type: cell-based
[7] = molecular target: T1, von Hippel-Lindau disease tumor suppressor/Dual specificity mitogen-activated protein kinase kinase 2/Dual specificity mitogen-activated protein kinase kinase 1 (Homo sapiens); experiment: Protac activity at VHL/MEK in human A375 cells assessed as MEK1 degradation at 1 to 10 uM incubated for 12 hrs followed by poly(I:C) treatment and measured after 4 hrs by Surefire assay; type: cell-based
[8] = molecular target: T1, von Hippel-Lindau disease tumor suppressor/Dual specificity mitogen-activated protein kinase kinase 2/Dual specificity mitogen-activated protein kinase kinase 1 (Homo sapiens); experiment: Protac activity at VHL/MEK in human A375 cells assessed as MEK1 degradation at 1 uM incubated for 16 hrs in presence of poly(I:C) stimulation by Surefire assay relative to control; type: cell-based
[9] = molecular target: T1, von Hippel-Lindau disease tumor suppressor/Dual specificity mitogen-activated protein kinase kinase 2/Dual specificity mitogen-activated protein kinase kinase 1 (Homo sapiens); experiment: Protac activity at VHL/MEK in human A375 cells assessed as […] at <10 uM incubated for 12 hrs followed by poly(I:C) treatment and measured after 4 hrs by Surefire assay; type: cell-based
[10] = molecular target: T2, Dual specificity mitogen-activated protein kinase kinase 1 (Homo sapiens, UniProt Q02750); experiment: Inhibition of MEK1 (unknown origin) incubated for 60 mins in presence of ATP by Kinase Glo luminescence assay
[11] = molecular target: T1, von Hippel-Lindau disease tumor suppressor/Dual specificity mitogen-activated protein kinase kinase 2/Dual specificity mitogen-activated protein kinase kinase 1 (Homo sapiens); experiment: Protac activity at VHL/MEK in human A375 cells assessed as MEK1 degradation at 10 uM incubated for 16 hrs in presence of poly(I:C) stimulation by Surefire assay relative to control; type: cell-based
[12] = molecular target: T1, von Hippel-Lindau disease tumor suppressor/Dual specificity mitogen-activated protein kinase kinase 2/Dual specificity mitogen-activated protein kinase kinase 1 (Homo sapiens); experiment: Protac activity at VHL/MEK in human A375 cells assessed as MEK1 degradation at 10 uM incubated for 16 hrs in presence of poly(I:C) stimulation by immunoblotting analysis; type: cell-based
[13] = molecular target: T1, von Hippel-Lindau disease tumor suppressor/Dual specificity mitogen-activated protein kinase kinase 2/Dual specificity mitogen-activated protein kinase kinase 1 (Homo sapiens); experiment: Protac activity at VHL/MEK in human A375 cells assessed as MEK1 degradation at 10 uM incubated for 2 hrs in presence of ploy(I:C) stimulation by Surefire assay; type: cell-based
[14] = molecular target: T1, von Hippel-Lindau disease tumor suppressor/Dual specificity mitogen-activated protein kinase kinase 2/Dual specificity mitogen-activated protein kinase kinase 1 (Homo sapiens); experiment: Protac activity at VHL/MEK in human A375 cells assessed as MEK2 degradation at 10 uM incubated for 16 hrs in presence of poly(I:C) stimulation by immunoblotting analysis; type: cell-based
[15] = Aqueous solubility of the compound in buffer at pH 7.4; type: physicochemical
[16] = Lipophilicity, log D of compound; type: physicochemical; conditions: octanol/water
[17] = molecular target: T1, von Hippel-Lindau disease tumor suppressor/Dual specificity mitogen-activated protein kinase kinase 2/Dual specificity mitogen-activated protein kinase kinase 1 (Homo sapiens); experiment: Protac activity at VHL/MEK in human A375 cells assessed as MEK1 degradation at 10 uM incubated up to 8 hrs in presence of poly(I:C) stimulation by Surefire assay; type: cell-based
[18] = molecular target: T2, Dual specificity mitogen-activated protein kinase kinase 1; experiment: Inhibition of MEK1 in human A375 cells assessed as reduction in ERK1/2 phosphorylation at 10 uM incubated for 1 to 16 hrs in presence of poly(I:C) stimulation by Surefire assay; type: cell-based
[19] = molecular target: T2, Dual specificity mitogen-activated protein kinase kinase 1; experiment: Inhibition of MEK1 in human A375 cells assessed as reduction in IL6 secretion at 1 to 10 uM incubated for 12 hrs followed by poly(I:C) treatment and measured after 4 hrs by AlphaLISA assay; type: cell-based
[20] = system: A-375; experiment: Reduction in MEK1 protein level in human A375 cells at 100 pM to 10 uM incubated for 12 hrs followed by poly(I:C) treatment and measured after 4 hrs by Surefire assay relative to untreated control; type: functional
[21] = system: A-375; experiment: Reduction in MEK1 protein expression in human A375 cells at 10 uM incubated for 16 hrs in presence of poly(I:C) stimulation by Surefire assay; type: functional, cell-based
[22] = molecular target: T2, Dual specificity mitogen-activated protein kinase kinase 1; experiment: Inhibition of MEK1 in human A375 cells assessed as inhibition of ERK1/2 phosphorylation at 1 to 10 uM incubated for 12 hrs followed by poly(I:C) treatment and measured after 4 hrs by Surefire assay; type: cell-based

T2 sequence (Q02750 whole entry): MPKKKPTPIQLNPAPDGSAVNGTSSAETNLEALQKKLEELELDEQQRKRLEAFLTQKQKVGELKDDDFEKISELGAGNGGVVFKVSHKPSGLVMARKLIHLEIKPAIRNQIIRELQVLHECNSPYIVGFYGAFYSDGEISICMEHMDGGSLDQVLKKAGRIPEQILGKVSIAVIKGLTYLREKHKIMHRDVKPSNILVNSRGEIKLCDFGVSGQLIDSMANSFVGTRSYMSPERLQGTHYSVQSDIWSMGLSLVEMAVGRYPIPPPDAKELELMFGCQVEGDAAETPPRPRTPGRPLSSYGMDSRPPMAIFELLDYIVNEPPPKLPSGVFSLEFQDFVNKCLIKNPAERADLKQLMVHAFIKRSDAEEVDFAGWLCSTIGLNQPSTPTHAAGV
T1 sequence (P36507 whole entry, looked up): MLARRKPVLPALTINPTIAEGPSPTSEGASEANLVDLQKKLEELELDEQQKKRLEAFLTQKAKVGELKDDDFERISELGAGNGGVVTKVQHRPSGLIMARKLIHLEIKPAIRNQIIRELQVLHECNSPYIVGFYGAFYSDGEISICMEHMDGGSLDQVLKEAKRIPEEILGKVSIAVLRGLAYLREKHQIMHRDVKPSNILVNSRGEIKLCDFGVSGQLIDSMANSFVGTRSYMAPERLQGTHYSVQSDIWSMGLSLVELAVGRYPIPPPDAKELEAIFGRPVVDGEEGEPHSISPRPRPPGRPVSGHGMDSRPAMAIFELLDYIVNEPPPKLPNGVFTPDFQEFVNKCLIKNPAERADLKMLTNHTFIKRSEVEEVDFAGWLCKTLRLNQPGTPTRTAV
T1 sequence (P40337 whole entry, looked up): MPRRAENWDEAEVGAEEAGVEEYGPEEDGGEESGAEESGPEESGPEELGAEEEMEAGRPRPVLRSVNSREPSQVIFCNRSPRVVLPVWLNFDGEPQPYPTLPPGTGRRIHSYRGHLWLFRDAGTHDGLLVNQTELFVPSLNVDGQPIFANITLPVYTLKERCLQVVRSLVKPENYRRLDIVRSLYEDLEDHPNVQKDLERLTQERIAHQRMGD
T1 sequence (Q02750 whole entry, looked up): as the sequence (Q02750 whole entry) above

O=C(c1ccc(F)c(F)c1Nc1ccc(I)cc1F)N1CC(O)([C@@H]2CCCCN2)C1 [COBIMETINIB] showed an IC50 [1] of 5 nM.

For Cc1ncsc1-c1ccc([C@H](C)NC(=O)[C@@H]2C[C@@H](O)CN2C(=O)[C@@H](NC(=O)COCCOCCOCCNC(=O)COc2ccc(S(=O)(=O)Nc3cc(C)c(=O)n(C)c3Nc3ccc(I)cc3F)cc2)C(C)(C)C)cc1, the Activity [2] was “Active”, the “growth inhibition (GI)” value [3] was “Active” and the Activity [4] was “Active”. For the same molecule, the Activity [5] was “Active”, the inhibition [6] was 100% and the Activity [7] was “Active”. The Activity [8] was 72%, the Activity [9] was “Active” and the IC50 [10] was 158 nM. The Activity [11] was 95%, the Activity [12] was “Active” and the Activity [13] was “Active”. For the same molecule, the Activity [14] was “Active”.

With Cc1ncsc1-c1ccc([C@H](C)NC(=O)[C@@H]2C[C@@H](O)CN2C(=O)[C@@H](NC(=O)COCCOCCOCCOCCNC(=O)CCc2ccc(S(=O)(=O)Nc3cc(C)c(=O)n(C)c3Nc3ccc(I)cc3F)cc2)C(C)(C)C)cc1 the Activity [2] was “Active”, the “growth inhibition (GI)” value [3] was “Active” and the solubility [15] was less than 1.5 µM. The Activity [4] was “Active”, the Activity [5] was “Active” and the inhibition [6] was 100%. The logD [16] was 4.3, the Activity [7] was “Active” and the Activity [8] was 91%. For the same molecule, the Activity [9] was “Active”, the IC50 [10] was 100 nM and the Activity [11] was 96%. The Activity [12] was “Active”, the Activity [13] was “Active” and the Activity [14] was “Active”.

For CC(=O)Nc1cccc(-n2c(=O)n(C3CC3)c(=O)c3c(Nc4ccc(I)cc4F)n(C)c(=O)c(C)c32)c1 [TRAMETINIB], the IC50 [1] was 0.74 nM.

For Cc1cc(NS(=O)(=O)c2ccccc2)c(Nc2ccc(I)cc2F)n(C)c1=O, the Activity [17] was “inactive”, the “growth inhibition (GI)” value [3] was “Active” and the logD [16] was 3.9. The Activity [8] was -7%, the IC50 [10] was 398 nM and the Activity [11] was 1%. For the same molecule, the inhibition [18] was “Active”, the Activity [12] was “inactive” and the inhibition [19] was “Active”. The Activity [14] was “inactive”, the “inhibition (INH)” value [20] was 20% and the inhibition [21] was “Active”. The inhibition [22] was “Active”.

For Cc1ncsc1-c1ccc([C@H](C)NC(=O)[C@@H]2C[C@@H](O)CN2C(=O)[C@@H](NC(=O)COCCOCCOCCNC(=O)CCc2ccc(S(=O)(=O)Nc3cc(C)c(=O)n(C)c3Nc3ccc(I)cc3F)cc2)C(C)(C)C)cc1, the Activity [2] was “Active”, the “growth inhibition (GI)” value [3] was “Active” and the Activity [4] was “Active”. For the same molecule, the Activity [5] was “Active”, the inhibition [6] was 100% and the Activity [7] was “Active”. For the same molecule, the Activity [8] was 90%, the Activity [9] was “Active” and the IC50 [10] was 100 nM. The Activity [11] was 94%, the Activity [12] was “Active” and the Activity [13] was “Active”. For the same molecule, the Activity [14] was “Active”.
